Source: ChEMBL document CHEMBL1124277, “Leukotriene receptor antagonists. 4. Synthesis and leukotriene D4/E4 receptor antagonist activity of 4-(alkyl)acetophenone derivatives” (J Med Chem, 1988)

Tests used:
[1] = biological target: T1, Cysteinyl leukotriene receptor 1 (Cavia porcellus) (UniProt Q2NNR5); assay: Dissociation constant for leukotriene antagonist (compound) on Cysteinyl leukotriene D4 receptor in guinea pig ileum was determined; format: functional, tissue-based
T1 sequence (whole entry): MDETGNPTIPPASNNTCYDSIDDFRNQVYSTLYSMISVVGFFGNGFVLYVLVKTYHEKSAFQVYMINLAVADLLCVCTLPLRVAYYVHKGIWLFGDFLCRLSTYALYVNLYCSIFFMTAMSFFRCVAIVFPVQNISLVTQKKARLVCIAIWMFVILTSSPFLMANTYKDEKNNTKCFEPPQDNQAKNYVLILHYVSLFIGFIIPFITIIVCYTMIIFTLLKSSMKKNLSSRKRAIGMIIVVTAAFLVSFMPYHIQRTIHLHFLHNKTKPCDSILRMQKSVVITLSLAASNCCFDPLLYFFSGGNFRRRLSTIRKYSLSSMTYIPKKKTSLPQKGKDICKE

[2] = biological target: T1, Cysteinyl leukotriene receptor 1 (Cavia porcellus); assay: Dissociation constant for leukotriene antagonist (compound) on LTE4 receptor in guinea pig ileum was determined; format: functional, tissue-based

Row | pKB [1] | pKB [2] | Structure (SMILES)
1 | 6.93 | 7.21 | CCCc1c(OCCCCc2nnn[nH]2)ccc(C(C)=O)c1O
2 | 6.25 | 6.67 | CCCc1c(CCCCc2nnn[nH]2)ccc(C(C)=O)c1O
3 | 7.08 | 7.5 | CCCc1c(CCCCCc2nnn[nH]2)ccc(C(C)=O)c1O
4 | 5.47 | 5.64 | CCCc1c(OCCCc2nnn[nH]2)ccc(C(C)=O)c1O
